Test results: patent publication US4877893A, “Process for the preparation of 2-(O-alkyl)-2-thio-1,3,2-oxathiophospholanes” (priority 1987, dated 1989)

Key:
Assay in all cases: Fungicidal effect on infected agar nutrient media, colony diameter
Format in all cases: cell-based
Sclerotinia sclerotinia = conditions: 3rd day after treatment, untreated control 41.7
Experimental: (§1) Agar nutrient media (Diameter 70 MM, thickness 10 mm) infected by Sclerotonia sclerotinia suspension are treated with 20 EC formulations prepared according to Example 27 and comprising 1, 10, 100 and 1000 ppm, respectively of the active ingredient of the Formula I. The fungicidal effect of the compositions is evaluated on the 3rd day after treatment by measuring the diameter of the Fungi colonies.

Penicillium cyclopium = conditions: 7th day after treatment, untreated 26.5
Experimental: as §1
The series of measureents described in Example 35 is carried out except that the agar nutrient media are infected by a Penicillium cyclopium Fungi strain and the test is evaluated on the 7th day after treatment.

Alternaria tenuis = conditions: 5th day after treatment, untreated control 36.8
Experimental: as §1
The series of measurements according to Example 35 is carried out except that the agar nutrient media are infected by Alternaria Tenius and evaluation is accomplished on the 5th day after treatment.

Row | SMILES | Diameter of colony (mm) (Sclerotinia sclerotinia; 1 ppm) | Diameter of colony (mm) (Sclerotinia sclerotinia; 10 ppm) | Diameter of colony (mm) (Sclerotinia sclerotinia; 100 ppm) | Diameter of colony (mm) (Sclerotinia sclerotinia; 1000 ppm) | Diameter of colony (mm) (Penicillium cyclopium; 1 ppm) | Diameter of colony (mm) (Penicillium cyclopium; 10 ppm) | Diameter of colony (mm) (Penicillium cyclopium; 100 ppm) | Diameter of colony (mm) (Penicillium cyclopium; 1000 ppm) | Diameter of colony (mm) (Alternaria tenuis; 1 ppm) | Diameter of colony (mm) (Alternaria tenuis; 10 ppm) | Diameter of colony (mm) (Alternaria tenuis; 100 ppm) | Diameter of colony (mm) (Alternaria tenuis; 1000 ppm)
1 | S=P1(OCCBr)OCCS1 (stereo not drawn) [Compound 2, 2-(O-2'-bromoethyl)-2-thio-1,3,2-oxathiophospholane] | 32.9 mm | 29.3 mm | 3.1 mm | 0 mm | 24.6 mm | 19.0 mm | 8.4 mm | 0 mm | 30.9 mm | 26.1 mm | 5.3 mm | 0 mm
2 | S=P1(OCCI)OCCS1 (stereo not drawn) [Compound 3, 2-(O-2'-iodoethyl)-2-thio1,3,2-oxathiophospholane] | 37.4 mm | 30.0 mm | 2.1 mm | 0 mm | 25.0 mm | 18.6 mm | 7.1 mm | 0 mm | 34.6 mm | 22.4 mm | 6.8 mm | 0 mm
3 | CC1CSP(=S)(OCCCl)O1 (stereo not drawn) [Compound 4, 2-(0-2'-chloroethyl)-2-thio-5-methyl-1,3,2-oxathiophospholane] | 34.6 mm | 27.6 mm | 0 mm | 0 mm | 24.1 mm | 19.4 mm | 9.0 mm | 0 mm | 32.6 mm | 23.7 mm | 6.5 mm | 0 mm
4 | CC1CSP(=S)(OCCBr)O1 (stereo not drawn) [Compound 5] | 35.4 mm | 29.2 mm | 1.7 mm | 0 mm | 20.1 mm | 19.5 mm | 7.8 mm | 0 mm | 34.9 mm | 22.3 mm | 7.9 mm | 0 mm
5 | CC1CSP(=S)(OCCI)O1 (stereo not drawn) [Compound 6] | 39.3 mm | 30.0 mm | 1.0 mm | 0 mm | 21.3 mm | 17.3 mm | 9.0 mm | 0 mm | 35.5 mm | 21.0 mm | 6.0 mm | 0 mm
6 | CC1COP(=S)(OCCCl)S1 (stereo not drawn) [Compound 7] | 38.1 mm | 31.2 mm | 0 mm | 0 mm | 25.4 mm | 16.7 mm | 8.8 mm | 0 mm | 34.7 mm | 25.5 mm | 5.9 mm | 0 mm
7 | CC1COP(=S)(OCCBr)S1 (stereo not drawn) [Compound 8] | 37.6 mm | 29.9 mm | 1.0 mm | 0 mm | 20.0 mm | 18.3 mm | 7.9 mm | 0 mm | 30.1 mm | 26.1 mm | 6.4 mm | 0 mm
8 | CC1COP(=S)(OCCI)S1 (stereo not drawn) [Compound 9, 2-(0-2'-iodoethyl)-2-thio-4-methyl-1,3,2-oxathiophospholane] | 39.2 mm | 27.6 mm | 3.9 mm | 0 mm | 23.2 mm | 15.8 mm | 5.7 mm | 0 mm | 30.6 mm | 24.6 mm | 8.9 mm | 0 mm
9 | CC(CCl)OP1(=S)OCCS1 (stereo not drawn) [Compound 10, 2-(0-1'-methyl-2'-chloroethyl)-2-thio-1,3,2-oxathiophospholane] | 40.1 mm | 31.3 mm | 1.8 mm | 0 mm | 21.3 mm | 19.0 mm | 6.8 mm | 0 mm | 33.9 mm | 21.6 mm | 5.8 mm | 0 mm
10 | CC(CBr)OP1(=S)OCCS1 (stereo not drawn) [Compound 11] | 34.6 mm | 30.6 mm | 2.8 mm | 0 mm | 24.1 mm | 17.5 mm | 8.3 mm | 0 mm | 35.9 mm | 24.1 mm | 4.6 mm | 0 mm
11 | CC(CI)OP1(=S)OCCS1 (stereo not drawn) [Compound 12] | 35.9 mm | 27.4 mm | 3.7 mm | 0 mm | 25.8 mm | 16.1 mm | 4.7 mm | 0 mm | 34.5 mm | 22.0 mm | 4.8 mm | 0 mm
12 | CC(Cl)COP1(=S)OCCS1 (stereo not drawn) [Compound 13, 2-(0-2'-methyl-2'-chloroethyl)-2-thio-1,3,2-oxathiophospholane] | 33.9 mm | 32.1 mm | 1.7 mm | 0 mm | 24.5 mm | 19.2 mm | 7.5 mm | 0 mm | 32.2 mm | 25.8 mm | 5.1 mm | 0 mm
13 | CC(Br)COP1(=S)OCCS1 (stereo not drawn) [Compound 14] | 38.1 mm | 28.1 mm | 0 mm | 0 mm | 18.2 mm | 17.6 mm | 7.9 mm | 0 mm | 31.3 mm | 21.3 mm | 5.7 mm | 0 mm
14 | CC(I)COP1(=S)OCCS1 (stereo not drawn) [Compound 15] | 34.3 mm | 30.3 mm | 1.4 mm | 0 mm | 19.1 mm | 15.5 mm | 5.8 mm | 0 mm | 35.9 mm | 21.1 mm | 5.5 mm | 0 mm
15 | CC1OP(=S)(OCCCl)SC1C (stereo not drawn) [Compound 16, 2-(0-2'-chloroethyl)-2-thio-4,5-dimethyl-1,3,2-oxathiophospholane] | 39.4 mm | 27.6 mm | 1.7 mm | 0 mm | 23.2 mm | 18.1 mm | 6.6 mm | 0 mm | 34.4 mm | 22.0 mm | 6.3 mm | 0 mm
16 | CC1OP(=S)(OCCBr)SC1C (stereo not drawn) [Compound 17] | 40.1 mm | 30.2 mm | 1.0 mm | 0 mm | 24.9 mm | 14.2 mm | 8.9 mm | 0 mm | 33.2 mm | 23.9 mm | 5.6 mm | 0 mm
17 | CC1OP(=S)(OCCI)SC1C (stereo not drawn) [Compound 18] | 38.2 mm | 28.0 mm | 1.5 mm | 0 mm | 25.2 mm | 14.2 mm | 6.3 mm | 0 mm | 35.8 mm | 22.8 mm | 5.3 mm | 0 mm
